One assay relates to A431 cells. The assay can be described thus: Proliferation assay on the squamous carcinoma cell line A431 cells (C5). To be noted: Homo sapiens, A-431; 72 hours with compounds; MTT cell viability assay; read-out: A431 cell (C5): pIC50 (converted). The class given is cell-based. The protocol:
The squamous carcinoma cell line (A431) was used in a cell proliferation assay, to assess the inhibitory effect of the compounds in whole cells.
In a first step the A431 cells were incubated for 24 hours in the presence of 10% FCS serum. In the second step the cells were incubated for 72 hours with the compounds to be tested at a final concentration of 100 ng/ml. The effect of the compounds on the cell proliferation was finally assessed in a standard MTT cell viability assay.

The target in another assay is EGFR (Homo sapiens, UniProt P00533). The assay can be described thus: In vitro inhibition of EGFR, Flash Plate or glass-fiber filter technology (C2). Type of assay: biochemical. Set-up: 0.5 μg EGFR-kinase domain/well. To be noted: EGFR-kinase domain, 5.0 μM unlabeled ATP, read-out: Kinase activity.(C2): pIC50 (converted). The procedure, abridged: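 Two radiometric formats were used, each with 5.0 μM unlabeled ATP, [33P]ATP, 0.5 μg EGFR kinase domain and compounds from 1·10^−10 to 1·10^−6 M. Glass-fiber filter: 25° C for 10 min, pH 7.5, Mn2+/Mg2+, acid-stopped, phosphorimager read. Streptavidin Flash Plate: biotinylated poly(GT), pH 8.0, 30° C for 60 min.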
Chain of EGFR (P00533 712-979 limits assumed): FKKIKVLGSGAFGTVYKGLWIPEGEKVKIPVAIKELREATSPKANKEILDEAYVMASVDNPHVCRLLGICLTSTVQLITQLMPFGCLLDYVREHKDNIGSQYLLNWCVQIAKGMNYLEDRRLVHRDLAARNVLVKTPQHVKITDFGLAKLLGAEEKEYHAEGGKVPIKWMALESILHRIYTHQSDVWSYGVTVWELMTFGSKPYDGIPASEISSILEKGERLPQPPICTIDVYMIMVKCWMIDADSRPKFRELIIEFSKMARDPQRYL

In a further assay the test system is SKOV3 cells. The experiment in a line: Serum starved proliferation assay on the ovarian carcinoma SKOV3 cells (C3). To be noted: Homo sapiens, SK-OV-3, 72 h, EGF stimulated (100 ng/ml, 72 hours, serum free) or 72 hours with compounds; MTT cell viability assay; read-out: SKOV3 cell (C3): pIC50 (converted). Type of assay: cell-based. The procedure, abridged:
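MTT viability read-out in SKOV3 cells after a 24 h pre-incubation in 10% FCS, in one of two formats. EGF-stimulated version: serum-free compound exposure followed by 100 ng/ml EGF (final) for 72 h at 37 °C, 5% CO2. Otherwise, compound alone for 72 h.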

In the case of `COCCOc1cc2ncnc3c2cc1OCCCCCCOc1ccc(Br)cc1N3` [Compound 28, 4,6-ethanediylidene-19H-pyrimido[4,5-b][6,13,1]benzodioxaazacyclopentadecine, 17-bromo-8,9,10,11,12,13-hexahydro-20-(2-methoxyethoxy)-], the figures for the IC50 in the assay on A431 cells, at EGFR and in the assay with SKOV3 cells were 1580 nM, 25.1 nM and 1450 nM, respectively.

With `COc1cc2ncnc3c2cc1OCCCCCN(C(=O)OC(C)(C)C)Cc1cc(F)c(Cl)cc1N3` [Compound 29, 4,6-ethanediylidenepyrimido[4,5-b][6,1,12]benzoxadiazacyclopentadecine-13(8H)-carboxylic acid, 17-chloro-16-fluoro-9,10,11,12,14,19-hexahydro-20-methoxy-, 1,1-dimethylethyl ester], the figures for the IC50 with A431 cells, on EGFR and in the assay on SKOV3 cells were over 3160 nM, 794 nM and over 10000 nM, respectively.

As to `COc1cc2ncnc3c2cc1OCCCCCNCc1cc(F)c(Cl)cc1N3` [Compound 30, 4,6-ethanediylidenepyrimido[4,5-b][6,1,12]benzoxadiazacyclopentadecine, 17-chloro-16-fluoro-8,9,10,11,12,13,14,19-octahydro-20-methoxy-], the results for the IC50 in the assay with A431 cells, on EGFR and in the assay with SKOV3 cells were over 1000 nM, 31.6 nM and 1020 nM, respectively.

In the case of `COc1cc2ncnc3c2cc1OCCN(CCN1CCOCC1)CCCOc1ccc(Cl)cc1N3` [Compound 33, 4,6-etheno-19H-pyrimido[5,4-k][1,8,5,13]benzodioxadiazacyclopentadecine, 17-chloro-8,9,10,11,12,13-hexahydro-20-methoxy-10-[2-(4-morpholinyl)ethyl]-], the figures for the IC50 in the assay with A431 cells, on EGFR and in the assay on SKOV3 cells were 1580 nM, 25.1 nM and 1740 nM, respectively.

Consider `COc1cc2ncnc3c2cc1OCCCCCCOc1ccc(-c2ccccc2)cc1N3` [Compound 34, 4,6-ethanediylidene-19H-pyrimido[4,5-b][6,13,1]benzodioxaazacyclopentadecine, 8,9,10,11,12,13-hexahydro-20-methoxy-17-phenyl-], for which the IC50 in the assay on A431 cells is over 3160 nM; on EGFR, 63.1 nM; in the assay with SKOV3 cells, over 10000 nM.

In the case of `COc1cc2ncnc3c2cc1OCCCCCCOc1ccc(-c2cccc(C#N)c2)cc1N3` [Compound 35, benzonitrile, 3-(8,9,10,11,12,13-hexahydro-20-methoxy-4,6-ethanediylidene-19H-pyrimido[4,5-b][6,13,1]benzodioxaazacyclopentadecin-17-yl)-], the IC50 in the assay on A431 cells was over 3160 nM; on EGFR, 3980 nM; in the assay with SKOV3 cells it was over 10000 nM.

With `COc1cc2ncnc3c2cc1OCCCCCCNC(=O)c1ccc(Cl)cc1N3` [Compound 36, 4,6-ethanediylidene-8H-pyrimido[4,5-b][6,1,13]benzoxadiazacyclohexadecin-15(20H)-one, 18-chloro-9,10,11,12,13,14-hexahydro-21-methoxy-], the IC50 in the assay with A431 cells is over 3160 nM; at EGFR, 15.8 nM; with SKOV3 cells, 166 nM.

For the molecule `COc1cc2ncnc3c2cc1OCCCCCCOc1cc(Cl)ccc1N3` [Compound 37, 4,6-ethanediylidene-19H-pyrimido[4,5-b][6,13,1]benzodioxaazacyclopentadecine, 16-chloro-8,9,10,11,12,13-hexahydro-20-methoxy-], the figures for the IC50 in the assay with A431 cells, at EGFR and with SKOV3 cells were over 3160 nM, over 10000 nM and over 10000 nM, respectively.

With `COc1cc2ncnc3c2cc1OCCCCCOCCc1ccc(Cl)cc1N3` [Compound 38, 4,6-ethanediylidene-8H,14H-pyrimido[4,5-b][6,12,1]benzodioxaazacyclohexadecine, 18-chloro-9,10,11,12,15,20-hexahydro-21-methoxy-], the IC50 in the assay with A431 cells was 1260 nM; at EGFR it was 20 nM; in the assay on SKOV3 cells, 126 nM.

Turning to `COc1cc2ncnc3c2cc1OCCOCCOCCc1ccc(Cl)cc1N3` [Compound 39, 4,6-ethanediylidene-14H-pyrimido[4,5-b][6,9,12,1]benzotrioxaazacyclohexadecine, 18-chloro-8,9,11,12,15,20-hexahydro-21-methoxy-], the IC50 was 1580 nM with A431 cells, 20 nM on EGFR and 200 nM with SKOV3 cells.
